Results published in ChEMBL document CHEMBL3507680, “University of Dundee, Gates Library screen for HepG2 cell viability”.

Test: Human HepG2 cell viability assay in 384 well format
Type: toxicity, cell-based
Design: dose 125 nL, time 70.5 hour; concentration not given beside the values
Details: HepG2 cells, read-out: Inhibition

| SMILES | cytotoxicity at 70.5 h [%] |
| --- | --- |
| C[S+]([O-])c1nncn1CC(=O)c1cccc(C(F)(F)F)c1 (centres undefined) | -1.93 |
| CNC(=O)CN1CCOCC2(C1)CN(Cc1csnn1)CCO2 (centres undefined) | 12.8 |
| COCCN1CCN(S(C)(=O)=O)Cc2cccnc21 | -5.85 |
| NC[C@H]1CC[C@H](C(NC(=O)c2cccc(F)c2)c2ccccn2)CC1 (some centres undefined) | 41 |
| O=S1(=O)CCC(CNS(=O)(=O)N2CCc3ccccc3C2)C1 (centres undefined) | 1.82 |
| CCN(Cc1cccc(NC(=O)COCCOC)c1)C(C)=O | 1.86 |
| Cc1cc(CN2CCCC2c2noc(C(C)C)n2)on1 (centres undefined) | -15.4 |
| CC(C)Nc1ccnc(-c2ccnc3c2ccn3C)n1 | -9.28 |
| N#Cc1ccc(CNCC(C(=O)N2CCOCC2)c2ccccc2)cc1 (centres undefined) | -3 |
| CCOc1ccc(C(=O)CCC(=O)NCc2csc(N)n2)cc1C | -11.5 |
| Fc1cccc(CN2CCOCC3(CCN(C4CCOCC4)C3)C2)c1 (centres undefined) | -7.34 |
| CN1CCCc2cc(NC(=O)N3CCOC(C(N)=O)C3)ccc21 (centres undefined) | 3.77 |
| COc1ccc(Cc2noc(C3=NN(C)C(=O)CC3)n2)cc1OC | -2.26 |
| Fc1ccc(-c2cnc(CN3CCn4c(nnc4C4CC4)C3)o2)cc1 | -9.29 |
| Cc1occc1C(=O)NCC(=O)NCCOc1cccc(Cl)c1 | -11.3 |
| O=C1C(NCc2nnc3n2CCCC3)CCN1c1ccccc1 (centres undefined) | -5.59 |
| CCOC(=O)[C@H]1[C@@H](O)C(=O)N(C)C12CCN(C(=O)CC(C)C)CC2 | -6.09 |
| CCCNC(=O)C[C@@H]1CCN(C(=O)c2cccnc2)C[C@@H]1CC | 12.5 |
| O=C(NCc1nc(NC2CCCC2)c2cc(Cl)ccc2n1)c1cncs1 | -13.7 |
| CCN1CCCCC1C(=O)N1CCN(C(=O)OC)CC1 (centres undefined) | -5.22 |
| CCN(CC)C(=O)c1nnn(Cc2ccccc2)c1OC | 0.599 |
| CC(=O)NCC(=O)NCC1Cn2nnc(-c3cccc(F)c3)c2CO1 (centres undefined) | -0.435 |
| O=C1CC(NCc2ccncc2)CN1CCc1cccc(Cl)c1 (centres undefined) | -6.56 |

| SMILES | cytotoxicity at 70.5 h [%] |
| --- | --- |
| O=C(NC1CC1)C1CNCCN1C(=O)CCc1ccc2c(c1)OCO2 (centres undefined) | -3.72 |
| Cc1n[nH]c(C)c1-c1nccnc1CC1CCN(C(C)C)CC1 | 13.4 |
| Cc1ccc2oc(C(=O)N3CCCC(c4noc(C)n4)C3)cc2n1 (centres undefined) | -5.41 |
| c1ccc(CN2CCc3ncnc(-c4cncnc4)c3CC2)nc1 | 21.8 |
| CC(C)(C)C1SCC(=O)Nc2c1c(O)nn2C1CCCCC1 (centres undefined) | 8.92 |
| CCOc1ccc(Br)cc1S(=O)(=O)N(CC)Cc1ccc(N(C)C)cc1 | -3.07 |
| Cc1nc(C)n(CC2CCCN(c3ccnc(-c4ccccc4)n3)C2)n1 (centres undefined) | -10.2 |
| CCN(CC)CCn1cnc(-c2ccccc2)c1-c1cnn(CC)c1 | -10.7 |
| CCc1nc(C2CCCN(C(=O)CC3CCOCC3)C2)no1 (centres undefined) | -8.83 |
| CCc1n[nH]c(C2CN(CCS(C)(=O)=O)CCO2)n1 (centres undefined) | -0.712 |
| Cc1cc(CSc2nc(=O)ccn2C(C)C)no1 | -3.31 |
| Cc1nc(CN2CCCC(N(C)CCc3cccs3)C2)no1 (centres undefined) | 8.18 |
| Cn1cnc2c(N3CCOCC3)nc(C3CCNCC3)cc21 | -1.78 |
| COc1ccc(CNC2CCN(c3ccccc3)C2)c(OC)c1OC (centres undefined) | 19.7 |
| Cc1ccc2c(n1)N(CCn1cccn1)CCN(C1CCOCC1)C2 | -5.52 |
| O=C(Nc1cccn(Cc2ccccc2)c1=O)c1ccncc1F | 14.1 |
| COc1ccc(CC(=O)N2CCCC(Cn3cc(CN)nn3)C2)cc1 (centres undefined) | -4.47 |
| CN(C)c1nc(O)cc(C2CCN(C(=O)Cc3ccccn3)C2)n1 (centres undefined) | 1.91 |
| O=C(CS(=O)(=O)c1ccc(Cl)cc1)NC1CCCc2ccccc21 (centres undefined) | 1.89 |
| COc1ccccc1CC(=O)N1CCCC1Cn1nc(C)cc1C (centres undefined) | -2.44 |
| C1CCCN(C2CCCN(Cc3noc(C4CC4)n3)C2)CC1 (centres undefined) | -1.66 |
| COCCO[C@H]1CCN(C(=O)c2ccco2)[C@H]1Cc1cnn(C)c1 | -90.2 |
| CC(C)CN1CCC(NC(C)c2ccccc2-n2cccn2)CC1 (centres undefined) | -3.22 |

| SMILES | cytotoxicity at 70.5 h [%] |
| --- | --- |
| COc1ccc(C)cc1CN(C)CC(=O)NC1(C)CCS(=O)(=O)C1 (centres undefined) | -15.5 |
| Cc1nccn1C1CCCN(C(=O)c2ccnc(-n3ccnc3)c2)C1 (centres undefined) | 10.7 |
| CCC(=O)N1CCCC(Cn2cc(-c3ccc(F)cc3)nn2)C1 (centres undefined) | -6.83 |
| OCCN(Cc1ccncc1)CC1(c2ccc(Cl)cc2)CCCC1 | 1.74 |
| Cc1cc(CSCc2cc(C)on2)on1 | 12.2 |
| CCCNS(=O)(=O)c1cc2c3c(c1)c(C)cc(=O)n3CCC2 | -0.859 |
| Cc1cc(Nc2cnccn2)cc(C2CCCNC2)n1 (centres undefined) | -2.88 |
| Cc1nc2n(n1)CC(NCCC(=O)Nc1cc(C)on1)CC2 (centres undefined) | -6.62 |
| CN1C(=O)CC(c2ccccc2)C12CCN(CCO)CC2 (centres undefined) | 2.6 |
| c1nc(N2CCCC2)ncc1CN1CCCC(CN2CCCCC2)C1 (centres undefined) | 24.4 |
| Cc1nc(CN2CCN(C(=O)c3scnc3C)CC2)cs1 | -3.33 |
| O=C(COCC(=O)N(c1ccccc1)c1ccccc1)N1CCCC1 | -3.7 |
| O=C(O)c1nn(CC2CC2)c2c1CN(S(=O)(=O)c1cccnc1)CC2 | -11 |
| CC[C@@H]1N(Cc2ccc(C)s2)CCC[C@]12CCC(=O)N2C | -11.2 |
| O=C(C1CCSCC1)N1CCC2(CC1)COC(COCC1CC1)C2 (centres undefined) | -11.3 |
| COc1cccc(C(=O)N2CCN(Cc3nc(C(C)C)no3)CC2)c1 | -5.91 |
| CC(C)n1nc(Cn2cccc2)c2c1CN(Cc1ccoc1)C2 | -4.83 |
| O=C(N[C@@H]1CCN(C(=O)c2ccc(F)cc2Cl)C[C@H]1O)c1ccccn1 | -6.49 |
| CNS(=O)(=O)CC(=O)N(Cc1ccccc1)c1ccc(C)cc1 | -5.84 |
| Cc1nnc(CN(C)CCCOc2ccc(Cl)cc2)o1 | -10.2 |
| Cc1noc(CCCC(=O)NCCc2cc3ccccc3[nH]2)n1 | -6.92 |
| CCOc1ccc(C#N)cc1NCC(=O)NC1(C#N)CCCC1 | -6.01 |
| CC(NCc1ccc(Cl)o1)c1nnc2n1CCCC2 (centres undefined) | 9.09 |

| SMILES | cytotoxicity at 70.5 h [%] |
| --- | --- |
| CN(Cc1nnc(C2CC2)n1C)S(=O)(=O)c1ccccc1F | 4.23 |
| Cc1nc(CN(C)C(=O)Nc2cccc(C)c2C)no1 | -9.32 |
| CCc1nnc2n1CCN(C(=O)C(OC)c1ccccc1)C2 (centres undefined) | -8.62 |
| CC(C)OC[C@H]1CCC[C@]12CN(S(=O)(=O)C1CC1)CCO2 | -0.771 |
| O=C(NCCc1ccncc1)c1ccc(S(=O)(=O)NC2CCC2)cc1 | -9.51 |
| O=C(Nc1ccccc1)N1C[C@H]2C[C@H](C(=O)N3CCOCC3)[C@@H](C1)O2 | -6.84 |
| Cc1nc(-c2cc(C(=O)NCCN3CCOCC3)c3ccccn23)cs1 | -131 |
| Fc1ccc(CN2CCC3(CC2)CC(c2cccnc2)CO3)cc1 (centres undefined) | -0.689 |
| COc1ccc(OC)c(CCC(=O)Nc2cc(C)n[nH]2)c1 | -13.4 |
| Cc1cnn(CC2CN(Cc3nc4ccccc4s3)CCO2)c1 (centres undefined) | -4.94 |
| Cc1ccc(CCCC(=O)N(C)CCN2CCOCC2)cc1 | 13.8 |
| Cc1cc(S(=O)(=O)N2CCC(S(C)(=O)=O)CC2)ccc1F | -0.414 |
| Cc1nc(-c2ccccc2)n(CC(=O)NC2CCCC2)n1 | -13.6 |
| Nc1cccnc1N1CCC(c2ccccc2)CC1 | 25 |
| O=C1NC2(CCc3ccccc31)CCN(C(=O)c1cccnc1)C2 (centres undefined) | -13 |
| COC(=O)CSCc1noc(-c2ccc(C)cc2)n1 | 0.48 |
| Cc1cccc(-c2ccc(C(=O)NCCN3CCOCC3)c(=O)[nH]2)c1 | -6.01 |
| Cc1nc(C)c(C(C)NCc2c(C)nn(CC(C)C)c2N(C)C)s1 (centres undefined) | -3.31 |
| COc1cccc(-c2nc(CNCCn3cccn3)cs2)c1 | -7.96 |
| CC1CCN(CCCNC(=O)Nc2cc3c(cc2Br)OCCO3)CC1 | -0.325 |
| CCN(CCCc1ccccc1)CC1(C)Cc2c(N)nc(N)nc2O1 (centres undefined) | 12.9 |
| COc1ccc(CC(=O)N2CCCC2Cn2cc(C)cn2)cc1OC (centres undefined) | -0.349 |
| Cc1nn(C)c(Cl)c1C1CCCN1C(=O)c1ccc(N(C)C)nn1 (centres undefined) | -12.9 |

| SMILES | cytotoxicity at 70.5 h [%] |
| --- | --- |
| COc1ccc(CN2C[C@@H]3OCCN(CC4CCCO4)[C@@H]3C2)cc1 (some centres undefined) | -19.1 |
| COc1ccc(NC(=O)Cn2nc(C)c(C)cc2=O)cc1 | 1.99 |
| COCC(=O)N(C)Cc1ccc(OCc2cccs2)cc1 | -6.51 |
| O=c1[nH]nc(SCC2CCCO2)n1C1CC1 (centres undefined) | -6.11 |
| O=C1[C@H]2CN(c3ncccn3)C[C@H]2CN1Cc1ccncc1 | 3.36 |
| O=c1c2ccccc2nc2n1C(CSc1ccc(F)cc1)CN2 (centres undefined) | 28.4 |
| Cc1nn(C)cc1CN(Cc1ccccn1)Cc1ccccc1Cl | 4.5 |
| CCNc1cc2c(nn1)CCN(C(=O)C1COc3ccccc3O1)C2 (centres undefined) | -12.7 |
| Cc1ncccc1CNCC1CCCN1c1cccnn1 (centres undefined) | -3.29 |
| CC(CO)NC(=O)c1ccc(NCc2cc(C#N)ccc2F)cc1 (centres undefined) | -0.552 |
| c1csc(NCc2n[nH]c3c2CCN(CC2CC2)C3)n1 | -14.2 |
| CNC(=O)[C@@]12CCO[C@@H]1CCN(S(=O)(=O)c1cccc(C)c1)C2 | -5.31 |
| CN1CCN(Cc2cn3c(n2)CN(Cc2cccnc2)CC3)CC1 | 19.4 |
| Cc1cnccc1CN1CCN(C)C2(CCC(=O)N(CC3CC3)CC2)C1 (centres undefined) | -1.45 |
| COc1ccccc1CCNC(=O)C1CCC(Cn2cnnn2)CC1 (centres undefined) | -18.1 |
| CN(C)C[C@H]1C[C@@H]2CN(Cc3ccoc3)C[C@@H]2O1 | -12.5 |
| CCN(C)c1ccc(C(=O)N(CCOC)Cc2ccccn2)cc1 | 14.7 |
| COCCN1CCCC1c1cccc2c1OCCO2 (centres undefined) | 7.8 |
| CC(C)[C@H](NS(C)(=O)=O)C(=O)NCc1cc(-c2ccco2)n[nH]1 | -13.8 |
| CC(C)OCCOCC(O)CN(C)C(=O)Nc1ccc(F)cc1Cl (centres undefined) | -2.75 |
| N#Cc1ccc(C(=O)N2CC[C@H]3[C@H]2CCN3CC2CC2)cc1 | -10.6 |
| CC1(c2ccccc2)CCCN(Cc2nnc(-c3cccnc3)o2)C1 (centres undefined) | -3.27 |
